{"source": "paper PMC10794144", "about": "“A novel antibiotic class targeting the lipopolysaccharide transporter” (Nature, 2024)", "test_system": "A. baumannii", "experiment": "MIC, broth microdilution in CAMHB supplemented with human serum, read at 100% growth inhibition", "type": "cell-based, Acinetobacter baumannii", "conditions": "Acinetobacter baumannii, ACC00535; CAMHB + 20% HS; read-out: MIC", "protocol": "MIC determinations were performed using the broth microdilution method and in line with CLSI guidelines M07 and M100 (refs. [37],[38]). Bacterial inocula were prepared by diluting a 0.5 McFarland suspension in CAMHB or lysogeny broth (LB) specifically for A. baylyi isolates. […] MIC values of all of the tested antibiotics were read as the lowest compound concentration inhibiting bacterial growth by naked eye or beyond which the OD600 ceased to decrease."}
{"smiles": "CN1C(=O)[C@H](CCCCN)NC(=O)[C@H](CCCN)NCc2cccnc2Sc2c(Cl)ccc(Cl)c2CNC(=O)[C@@H]1Cc1c[nH]c2ccccc12", "note": "[RO7075573]", "values": [{"measurement": "MIC", "result": 0.12, "unit": "µg/mL"}]}
